Values quoted from earlier work in patent publication US4966768A, “Sustained release etodolac” (priority 1988, dated 1990).
Entries after “also recorded” stand apart in the source; their conditions may differ.

Legend:
adjuvant arthirtis = settings: reported in U.S. Pat. No. 4,533,551
[1] = in vivo

Compound: CCc1cccc2c3c([nH]c12)C(CC)(CC(=O)O)OCC3 (centres unmarked) [Etodolac, 1,8-diethyl-1,3,4,9-tetrahydropyrano[3,4-b] indole-1-acetic acid]
- aqueous solubility (in words) (below pH 3): very low and pH independent below pH 3; also recorded: water insoluble to an appreciable extent below pH 3
- difference in solubility between pH 5 and 7 (between pH 5 to 7): thirty
- aqueous solubility with rising pH (in words) (up to pH 5 and from pH 5 to 7): gradually increases with rising pH up to 5 and linearly increases with increasing pH to 7
- activity in adjuvant arthritis (in words) (adjuvant arthirtis): active in the treatment of adjuvant arthirtis
- reported pharmacological properties (in words) [1]: analgesic and anti-inflammatory properties
